Target: T1, human H-PGDS (Homo sapiens, UniProt O60760)
T1 construct: Full length human H-PGDS cDNA (Invitrogen Ultimate ORF IOH13026) was amplified by PCR; 6-His (N); TEV protease cleavage site (N); made in house; host or cells: E. coli BL21 (DE3*) for H-PGDS; Sf9 insect cells (baculovirus) for COX-2
Experiment: H-PGDS RapidFire high throughput mass spectrometry assay
Assay type: biochemical
Conditions: inhibition of conversion of PGH2 to PGD2 by H-PGDS; mean pIC50; read-out: Potency Range (mean pIC50) (converted)
How it was run: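 Full-length His-tagged human H-PGDS from E. coli converted PGH2, generated in situ (~10 μM burst) from arachidonic acid by FLAG-tagged human COX-2 (Sf9-expressed). PGD2 and PGF2α (substrate surrogate) were measured by RapidFire SPE-triple quadrupole MS. Percent conversion was calculated, and inhibition was taken as reduced conversion.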

T1 sequence (O60760 whole entry): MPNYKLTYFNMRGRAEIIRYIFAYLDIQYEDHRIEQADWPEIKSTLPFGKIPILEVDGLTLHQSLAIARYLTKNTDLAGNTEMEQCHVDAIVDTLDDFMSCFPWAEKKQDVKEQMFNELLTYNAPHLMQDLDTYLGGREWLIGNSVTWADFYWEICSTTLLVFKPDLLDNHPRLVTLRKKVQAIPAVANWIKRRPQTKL

SMILES: CC1(C)C[C@H](NC(=O)c2cnc(-c3cc(F)cc(Cl)c3)s2)C(=O)N1 (single isomer, unassigned) [Example 16]
- IC50: 0.0102 to 0.1 µM

Reference: US20220009918A1, “Chemical Compounds” (GlaxoSmithKline Intellectual Property Development Limited, priority 2018, published 2022)
